# Results published in publication PMC8742467, “Therapeutical interference with the epigenetic landscape of germ cell tumors: a comparative drug study and new mechanistical insights” (Clinical Epigenetics, 2022).
# Tests used:
# [1] = tested on: PRKCB, PRKD1, HDAC9, CSF1R expression in GCT cells; test: Quantitative RT-PCR of co-treatment target genes; format: cell-based, Human; conditions: 0.2 × EC50, 0.5 × EC50 and EC50
# Description: Quantitative RT-PCR (qRT-PCR) was performed as described previously. A total amount of 1 µg of RNA was in-vitro transcribed into cDNA by using Oligo(dT)18 Primer and Maxima H Minus Reverse Transcriptase (200 U/µL) (all Thermo Fisher Scientific). qRT-PCR runs were performed on a 384-well C1000 cycler (BioRad, Feldkirchen, Germany). All samples were analyzed in technical triplicates using 7.34 ng of cDNA for each replicate and the SYBR-green-based Luna Universal qPCR Master Mix (New England Biolabs, Frankfurt am Main, Germany). At the end of each run, melting curve analyses were performed. Oligonucleotide sequences are given in the supplement (Additional file 12: Table S2 B).
# [2] = tested on: SE-R (cisplatin-resistant seminoma subclone); test: XTT cell viability assay, mean per entity SE-R; format: cell-based; conditions: Homo sapiens, after 48 h
# Description: (§1) The […] (XTT) assays were performed as described previously. In summary, for GCT and fibroblast cell lines 5 × 10^3 cells (3 × 10^3 for UC, PCa and RCC cell lines) per 96-well were seeded and different drug concentrations (see Additional file 2: Fig. S2, Additional file 3: Fig. S3) or corresponding solvents were added to the cells the following day. For drug details see Additional file 12: Table S2 C. Each condition was analyzed in four technical replicates and EC50 values were calculated by GraphPad Prism v8.
# [3] = tested on: GCT cell lines; test: XTT cell viability assay, GCT cell lines (pre-screen / summary); format: cell-based, Human
# How it was run: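 GCT cells seeded at 5 × 10^3/well, UC lines at 3 × 10^3/well; drug dilution series or solvent added next day. Viability read by XTT, four technical replicates per condition; EC50 calculated from concentration–response data.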
# [4] = tested on: JAR (CC); test: XTT cell viability assay, JAR; format: cell-based; conditions: Homo sapiens, after 48 h, n = 4, read-out: EC50 colour/symbol code, CC JAR
# Description: as §1
# [5] = tested on: EC-R (cisplatin-resistant embryonal carcinoma subclones); test: XTT cell viability assay, mean per entity EC-R; format: cell-based; conditions: Homo sapiens, after 48 h
# Description: as §1
# [6] = tested on: 2102EP (EC); test: XTT cell viability assay, 2102EP; format: cell-based; conditions: Homo sapiens; after 48 h, XTT, n = 4; read-out: EC50 colour/symbol code, EC 2102EP
# Description: as §1
# [7] = tested on: histone modifications in 2102EP cells; test: Mass spectrometry analysis of histone modifications (Mod Spec); format: cell-based, Human
# How it was run: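 2102EP cells were treated for 16 h with EC50 concentrations of Quisinostat, JIB-04, Chaetocin, MZ-1, LP99, PRT4165 or GSK343, with DMSO as solvent control. After trypsin harvest, histones were extracted and analysed by mass spectrometry. Raw data were converted to z-scores.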
# [8] = tested on: SE (seminoma) cell lines; test: XTT cell viability assay, mean per entity SE; format: cell-based; conditions: Homo sapiens, after 48 h
# Description: as §1
# [9] = 2102EP cells, Mod Spec raw data
# [10] = 2102EP, EC50, 16 h, vs solvent control
structure (smiles),measurement,setting,value
Cn1cc(CNCC2CCN(c3ncc(C(=O)NO)cn3)CC2)c2ccccc21 [Quisinostat],PRKCB expression (qRT-PCR),[1],upregulation
same,EC50,[2],13.2 nM
same,EC50,"[3]; Homo sapiens, GCT, cell line not stated, read-out: EC50 concentration used for low dose qRT-PCR",1.76 nM
same,EC50 / effective concentration in words,"[3]; first pre-screen, SE and EC proxies TCam-2 and 2102EP, XTT",nanomolar range
same,EC50,[4],< 1000 nM
same,EC50,[5],7.35 nM
same,EC50,[6],< 1000 nM
same,"H1.4: K25AC, % of peptide pool",[7]; [9],0.02419%
same,"H1.4: K25ME1, % of peptide pool",[7]; [9],1.754%
same,"H1.4: K25ME2, % of peptide pool",[7]; [9],0.1017%
same,"H1.4: K25ME3, % of peptide pool",[7]; [9],0.01896%
same,"H1.4: K25UN, % of peptide pool",[7]; [9],98.1009%
same,"H2A1: K13AC, % of peptide pool",[7]; [9],0.02445%
same,"H2A1: K13UN, % of peptide pool",[7]; [9],99.9755%
same,"H2A1: K15AC, % of peptide pool",[7]; [9],0.008356%
same,"H2A1: K15UB, % of peptide pool",[7]; [9],0%
same,"H2A1: K15UN, % of peptide pool",[7]; [9],99.9916%
same,"H2A3: K13AC, % of peptide pool",[7]; [9],0.03116%
same,"H2A3: K13UN, % of peptide pool",[7]; [9],99.9688%
same,"H2A3: K15AC, % of peptide pool",[7]; [9],0.09989%
same,"H2A3: K15UB, % of peptide pool",[7]; [9],0%
same,"H2A3: K15UN, % of peptide pool",[7]; [9],99.9001%
same,"H2A: K5AC, % of peptide pool",[7]; [9],30.5025%
same,"H2A: K5UN, % of peptide pool",[7]; [9],69.4975%
same,"H2A: K9AC, % of peptide pool",[7]; [9],4.727%
same,"H2A: K9UN, % of peptide pool",[7]; [9],95.2735%
same,"H2A: K36AC, % of peptide pool",[7]; [9],0.03623%
same,"H2A: K36UN, % of peptide pool",[7]; [9],99.9638%
same,"H3: K9AC, % of peptide pool",[7]; [9],3.623%
same,"H3: K9ME1, % of peptide pool",[7]; [9],30.7914%
same,"H3: K9ME2, % of peptide pool",[7]; [9],27.5315%
same,"H3: K9ME3, % of peptide pool",[7]; [9],2.296%
same,"H3: K9UN, % of peptide pool",[7]; [9],35.7584%
same,"H3: K14AC, % of peptide pool",[7]; [9],58.3927%
same,"H3: K14UN, % of peptide pool",[7]; [9],41.6073%
same,"H3: K18AC, % of peptide pool",[7]; [9],38.2845%
same,"H3: K18ME1, % of peptide pool",[7]; [9],0.1021%
same,"H3: K18UN, % of peptide pool",[7]; [9],61.6134%
same,"H3: K23AC, % of peptide pool",[7]; [9],46.4415%
same,"H3: K23ME1, % of peptide pool",[7]; [9],0.02903%
same,"H3: K23UN, % of peptide pool",[7]; [9],53.5295%
same,"H3: K56AC, % of peptide pool",[7]; [9],0.1713%
same,"H3: K56ME1, % of peptide pool",[7]; [9],1.011%
same,"H3: K56UN, % of peptide pool",[7]; [9],98.8174%
same,"H3: K64AC, % of peptide pool",[7]; [9],0.03095%
same,"H3: K64UN, % of peptide pool",[7]; [9],99.9691%
same,"H3: K79AC, % of peptide pool",[7]; [9],0.6776%
same,"H3: K79ME1, % of peptide pool",[7]; [9],18.2028%
same,"H3: K79ME2, % of peptide pool",[7]; [9],5.702%
same,"H3: K79ME3, % of peptide pool",[7]; [9],13.4482%
same,"H3: K79UN, % of peptide pool",[7]; [9],61.9691%
same,"H3: K122AC, % of peptide pool",[7]; [9],0.1638%
same,"H3: K122UN, % of peptide pool",[7]; [9],99.8362%
same,"H3: Q19ME1, % of peptide pool",[7]; [9],0.00624%
same,"H3: Q19UN, % of peptide pool",[7]; [9],99.9938%
same,"H3: Q55ME1, % of peptide pool",[7]; [9],0.3096%
same,"H3: Q55UN, % of peptide pool",[7]; [9],99.6904%
same,"H3: R42ME2, % of peptide pool",[7]; [9],2.863%
same,"H3: R42UN, % of peptide pool",[7]; [9],97.1374%
same,"H3: R49ME2, % of peptide pool",[7]; [9],6.457%
same,"H3: R49UN, % of peptide pool",[7]; [9],93.5429%
same,"H3R2UN: K4AC, % of peptide pool",[7]; [9],0.2031%
same,"H3R2UN: K4ME1, % of peptide pool",[7]; [9],23.4933%
same,"H3R2UN: K4ME2, % of peptide pool",[7]; [9],0.2912%
same,"H3R2UN: K4ME3, % of peptide pool",[7]; [9],0.05363%
same,"H3R2UN: K4UN, % of peptide pool",[7]; [9],75.9587%
same,"H3R2UN: Q5ME1, % of peptide pool",[7]; [9],0.06645%
same,"H3R2UN: Q5UN, % of peptide pool",[7]; [9],99.9336%
same,"H3.1: K27AC, % of peptide pool",[7]; [9],8.049%
same,"H3.1: K27ME1, % of peptide pool",[7]; [9],45.2407%
same,"H3.1: K27ME2, % of peptide pool",[7]; [9],17.0794%
same,"H3.1: K27ME3, % of peptide pool",[7]; [9],2.551%
same,"H3.1: K27UN, % of peptide pool",[7]; [9],27.08%
same,"H3.1: K36AC, % of peptide pool",[7]; [9],0.2956%
same,"H3.1: K36ME1, % of peptide pool",[7]; [9],12.4481%
same,"H3.1: K36ME2, % of peptide pool",[7]; [9],50.5827%
same,"H3.1: K36ME3, % of peptide pool",[7]; [9],20.2944%
same,"H3.1: K36UN, % of peptide pool",[7]; [9],16.3791%
same,"H3.3: K27AC, % of peptide pool",[7]; [9],13.7879%
same,"H3.3: K27M, % of peptide pool",[7]; [9],0%
same,"H3.3: K27ME1, % of peptide pool",[7]; [9],42.1096%
same,"H3.3: K27ME2, % of peptide pool",[7]; [9],14.1824%
same,"H3.3: K27ME3, % of peptide pool",[7]; [9],5.8099%
same,"H3.3: K27UN, % of peptide pool",[7]; [9],24.1102%
same,"H3.3: K36AC, % of peptide pool",[7]; [9],4.027%
same,"H3.3: K36ME1, % of peptide pool",[7]; [9],9.936%
same,"H3.3: K36ME2, % of peptide pool",[7]; [9],52.9264%
same,"H3.3: K36ME3, % of peptide pool",[7]; [9],21.2958%
same,"H3.3: K36UN, % of peptide pool",[7]; [9],11.8156%
same,"H4: K5AC, % of peptide pool",[7]; [9],13.3396%
same,"H4: K5UN, % of peptide pool",[7]; [9],86.6604%
same,"H4: K8AC, % of peptide pool",[7]; [9],32.6787%
same,"H4: K8UN, % of peptide pool",[7]; [9],67.3213%
same,"H4: K12AC, % of peptide pool","[7]; 2102EP cells, Mod Spec raw data, histone H4 K12 acetylated",21.736 % of peptide pool
same,"H4: K12UN, % of peptide pool","[7]; 2102EP cells, Mod Spec raw data, histone H4 K12 unmodified",78.264 % of peptide pool
same,"H4: K16AC, % of peptide pool","[7]; 2102EP cells, Mod Spec raw data, histone H4 K16 acetylated",69.3546 % of peptide pool
same,"H4: K16UN, % of peptide pool","[7]; 2102EP cells, Mod Spec raw data, histone H4 K16 unmodified",30.6454 % of peptide pool
same,"H4: K20AC, % of peptide pool","[7]; 2102EP cells, Mod Spec raw data, histone H4 K20 acetylated",15.0365 % of peptide pool
same,"H4: K20ME2, % of peptide pool","[7]; 2102EP cells, Mod Spec raw data, histone H4 K20 dimethylated",57.6801 % of peptide pool
same,"H4: K20ME1, % of peptide pool","[7]; 2102EP cells, Mod Spec raw data, histone H4 K20 monomethylated",5.018 % of peptide pool
same,"H4: K20ME3, % of peptide pool","[7]; 2102EP cells, Mod Spec raw data, histone H4 K20 trimethylated",3.192 % of peptide pool
same,"H4: K20UN, % of peptide pool","[7]; 2102EP cells, Mod Spec raw data, histone H4 K20 unmodified",19.0735 % of peptide pool
same,change of histone modifications of the expected mode of action (Mod Spec),[7]; [10],strong accumulation of histone acetylation on histones H3 and H4
same,off-target changes of histone modifications (Mod Spec),[7]; [10],"increase in histone methylation (H3K4me1, H3.3K27me3, H3K56me1, H4K20me1/3)"
same,EC50,[8],9.48 nM
